Source: US11299473B2, “Benzimidazole and indole compounds and uses thereof” (Incyte Corporation, priority 2018, dated 2022)

Target: active HPK1 (SignalChem M23-11G) (Homo sapiens (Human), UniProt Q92918)
Assay: HPK1 Kinase Binding Assay
Conditions: LanthaScreen tracer 222 / Eu-Anti GST antibody, one hour incubation at 25° C.
Experimental: A stock solution of 1 mM test compound was prepared in DMSO. The compound plate was prepared by 3-fold and 11-point serial dilutions. 0.1 μL of the compound in DMSO was transferred from the compound plate to the white 384 well polystyrene plates. The assay buffer contained 50 mM HEPES, pH 7.5, 0.01% Tween-20, 5 mM MgCl2, 0.01% BSA, and 5 mM DTT. 5 μL of 4 nM active HPK1 (SignalChem M23-11G) prepared in the buffer was added to the plate. The enzyme concentration given was based on the given stock concentration reported by the vender. 5 μl of 18 nM tracer 222 (ThermoFisher PV6121) and 4 nM LanthaScreen Eu-Anti GST antibody (ThermoFisher PV5595) were added. After one hour incubation at 25° C., the plates were read on a PHERAstar FS plate reader (BMG Labtech). Ki values were determined.

Chain of active HPK1 (SignalChem M23-11G) (Q92918 1-346 limits assumed): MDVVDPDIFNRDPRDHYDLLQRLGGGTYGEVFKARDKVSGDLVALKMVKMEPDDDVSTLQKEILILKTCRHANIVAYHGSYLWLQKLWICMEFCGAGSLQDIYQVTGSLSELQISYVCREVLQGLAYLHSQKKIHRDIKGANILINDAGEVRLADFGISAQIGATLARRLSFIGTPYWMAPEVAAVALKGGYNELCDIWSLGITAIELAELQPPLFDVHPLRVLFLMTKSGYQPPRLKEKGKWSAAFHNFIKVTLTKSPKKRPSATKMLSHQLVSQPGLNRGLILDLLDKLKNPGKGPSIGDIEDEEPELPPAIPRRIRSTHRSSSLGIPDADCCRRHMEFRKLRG

SMILES | Ki [nM]
Cn1c(-c2ncccc2F)nc2c(N3C[C@H](N)C[C@H]3CO)c(NC(=O)c3ccnc(-c4c(F)cccc4F)n3)ccc21 [Example 2, N-(4-((2S,4R)-4-Amino-2-(hydroxymethyl)pyrrolidin-1-yl)-2-(3-fluoropyridin-2-yl)-1-methyl-1H-benzo[d]imidazol-5-yl)-2-(2,6-difluorophenyl)pyrimidine-4-carboxamide] | ≤ 100
COc1cccc(F)c1-c1nccc(C(=O)Nc2ccc3c(ncn3[C@@H]3CCOC3)c2N2CCC[C@H]2CN)n1 [Example 27, N-(4-((S)-2-(Aminomethyl)pyrrolidin-1-yl)-1-((R)-tetrahydrofuran-3-yl)-1H-benzo[d]imidazol-5-yl)-2-(2-fluoro-6-methoxyphenyl)pyrimidine-4-carboxamide] | ≤ 100
COc1cccc(F)c1-c1nccc(C(=O)Nc2ccc3c(ccn3C)c2N2CCC[C@@H]2CN)n1 [Example 35, (R)—N-(4-(2-(Aminomethyl)pyrrolidin-1-yl)-1-methyl-1H-indol-5-yl)-2-(2-fluoro-6-methoxyphenyl)pyrimidine-4-carboxamide] | ≤ 100
COc1cccc(F)c1-c1nccc(C(=O)Nc2ccc3c(nc(C)n3C)c2N2CCC[C@@H]2CN)n1 [Example 13, (R)—N-(4-(2-(Aminomethyl)pyrrolidin-1-yl)-1,2-dimethyl-1H-benzo[d]imidazol-5-yl)-2-(2-fluoro-6-methoxyphenyl)pyrimidine-4-carboxamide] | ≤ 100
COc1cccc(F)c1-c1nccc(C(=O)Nc2ccc3c(nc(-c4ccncc4F)n3C)c2N2CCC[C@H]2CN)n1 [Example 18, (S)—N-(4-(2-(Aminomethyl)pyrrolidin-1-yl)-2-(3-fluoropyridin-4-yl)-1-methyl-1H-benzo[d]imidazol-5-yl)-2-(2-fluoro-6-methoxyphenyl)pyrimidine-4-carboxamide] | ≤ 100
Cc1cccc(F)c1-c1nccc(C(=O)Nc2ccc3c(nc(C)n3C)c2N2CCC[C@H]2CN)n1 [Example 33, (S)—N-(4-(2-(Aminomethyl)pyrrolidin-1-yl)-1,2-dimethyl-1H-benzo[d]imidazol-5-yl)-2-(2-fluoro-6-methylphenyl)pyrimidine-4-carboxamide] | ≤ 100
COc1cccc(F)c1-c1nccc(C(=O)Nc2ccc3c(nc(-c4ccncc4F)n3C)c2N2C[C@@H]3C[C@H]2CN3)n1 [Example 10, N-(4-((1S,4S)-2,5-Diazabicyclo[2.2.1]heptan-2-yl)-2-(3-fluoropyridin-4-yl)-1-methyl-1H-benzo[d]imidazol-5-yl)-2-(2-fluoro-6-methoxyphenyl)pyrimidine-4-carboxamide] | ≤ 100
COc1cccc(F)c1-c1nccc(C(=O)Nc2ccc3c(ccn3C)c2N2CCNC[C@H]2C)n1 [Example 37, (R)-2-(2-Fluoro-6-methoxyphenyl)-N-(1-methyl-4-(2-methylpiperazin-1-yl)-1H-indol-5-yl)pyrimidine-4-carboxamide] | ≤ 100
COc1cccc(F)c1-c1nccc(C(=O)Nc2ccc3c(nc(-c4ccnn4C)n3C)c2N2CCC[C@H]2CN)n1 [Example 19, (S)—N-(4-(2-(Aminomethyl)pyrrolidin-1-yl)-1-methyl-2-(1-methyl-1H-pyrazol-5-yl)-1H-benzo[d]imidazol-5-yl)-2-(2-fluoro-6-methoxyphenyl)pyrimidine-4-carboxamide] | ≤ 100
COc1cccnc1-c1nc2c(N3C[C@H](N)C[C@H]3CO)c(NC(=O)c3ccnc(-c4c(F)cccc4F)n3)ccc2n1C [Example 3, N-(4-((2S,4R)-4-Amino-2-(hydroxymethyl)pyrrolidin-1-yl)-2-(3-methoxypyridin-2-yl)-1-methyl-1H-benzo[d]imidazol-5-yl)-2-(2,6-difluorophenyl)pyrimidine-4-carboxamide] | ≤ 100
COCc1nc2c(N3CCC[C@H]3CN)c(NC(=O)c3ccnc(-c4c(F)cccc4OC)n3)ccc2n1C [Example 25, (S)—N-(4-(2-(Aminomethyl)pyrrolidin-1-yl)-2-(methoxymethyl)-1-methyl-1H-benzo[d]imidazol-5-yl)-2-(2-fluoro-6-methoxyphenyl)pyrimidine-4-carboxamide] | ≤ 100
